The values that follow come from patent US20220017486A1, “DOCK1-INHIBITING COMPOUND AND USE THEREOF” (KYUSHU UNIVERSITY, NATIONAL UNIVERSITY CORPORATION, priority 2018, published 2022).

The first assay relates to mouse lung carcinoma cell line (3LL cells). Description: Cell invasion inhibition assay (Matrigel invasion chamber). It is filed as cell-based. The settings on record: in words. Here is the method:
In this Pharmacological Test, the inhibitory effect of each test compound on cell invasion response was evaluated using a mouse lung carcinoma cell line (3LL cells), a mouse pancreatic cancer cell line (PANC02 cells), and a human breast cancer cell line (MDA-MB-157 cells). Of these, the mouse lung carcinoma cell line (3LL) is a cancer cell line with mutant Ras (K-Ras (G12C)), and the human breast cancer cell line (MDA-MB-157) is a cancer cell line with mutant Rac (Rac1 (P29S)). The experiments were performed in BD BioCoat Matrigel invasion chambers (BD Biosciences).
Specifically, an upper chamber with a Matrigel-coated membrane insert (8 μm pores) at the bottom was equilibrated with DMEM (serum-free medium) for 120 minutes. Thereafter, 300 μL of a suspension of a cancer cell line in DMEM (serum-free) was placed in the upper chamber while 500 μL of DMEM (with 10 mass % FCS) was placed in the lower chamber. Each test compound dissolved in DMSO at a predetermined concentration was added to both the culture media in the upper and lower chambers. As a control, DMSO alone was added to both the culture media in the upper and lower chambers. In all of the experiments, the final DMSO concentration in the culture media was adjusted to 0.2 mass %.
The resulting products were cultured under 5% CO2 at 37° C. for 22 hours (3LL and PANC02 cells) or 48 hours (MDA-MB-157 cells). Then, the upper chamber was removed, and the culture medium was removed. Thereafter, non-invading cells remaining in the upper chamber were removed using a cotton swab, and the cells remaining outside the bottom of the upper chamber (cells that had invaded into the Matrigel, and passed through the membrane insert) were stained with Diff-Quick (Sysmex). After staining, the membrane inserts with Matrigel were cut out using a scalpel to prepare slides, and the number of invading cells was counted under an optical microscope.
The results were evaluated based on percent cell invasion (%: Invasion) and percent inhibition (%: Inhibition). The percent cell invasion was obtained by converting the number of invading cells in the presence of each test compound into a percentage, taking the number of invading cells in the control test, in which DMSO was added alone, as 100%; and the percent inhibition was obtained by deducting the percent cell invasion from 100.
On to `CCC(=O)c1cc(S(=O)(=O)N2CCCC2)cn1CC(=O)c1ccc(-c2cccc(C(F)(F)F)c2)cc1` [HS-17, 1-(1-(2-oxo-2-(3′-(trifluoromethyl)-[1,1′-biphenyl]-4-yl)ethyl)-4-(pyrrolidin-1-yl-sulfonyl)-1H-pyrrol-2-yl)propan-1-one], for which the “percent cell invasion inhibition compared with TBOPP” value is “higher percent cell invasion inhibition than TBOPP”.

For a further assay, the target named is T1, DOCK1 (DHR-2 domain) (Homo sapiens, UniProt Q14185).
T1 construct: polypeptide fragments corresponding to the DHR-2 domain of DOCK1 or DOCK2 from mice and humans; Histidine-SUMO (N); made in house; host or cells: E. coli Arctic express (DE3)
T1 sequence (Q14185 1207-1617 limits assumed): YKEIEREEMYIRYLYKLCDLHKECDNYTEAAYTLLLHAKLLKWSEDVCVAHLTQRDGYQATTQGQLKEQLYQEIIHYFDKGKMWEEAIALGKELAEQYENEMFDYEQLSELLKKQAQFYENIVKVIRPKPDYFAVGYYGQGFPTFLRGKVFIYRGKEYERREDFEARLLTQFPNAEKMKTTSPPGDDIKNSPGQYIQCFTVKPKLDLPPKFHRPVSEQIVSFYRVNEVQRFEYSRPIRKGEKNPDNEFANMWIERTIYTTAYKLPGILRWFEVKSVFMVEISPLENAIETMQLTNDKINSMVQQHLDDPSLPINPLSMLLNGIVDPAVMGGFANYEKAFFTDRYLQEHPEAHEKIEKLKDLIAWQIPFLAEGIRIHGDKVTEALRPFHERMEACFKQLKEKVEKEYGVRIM
Kind of assay: In vitro GEF assay: Rac activation by DOCK1 DHR-2 domain. It is filed as biochemical, mice and humans. The settings on record: in words, GEF assay. As to the method:
DOCK1 and DOCK2, i.e., DOCK-A subfamily members, both activate Rac by catalyzing the GTP-GDP exchange reaction for Rac via their DHR-2 domains. Therefore, in this Pharmacological Test, the inhibitory effect of the compounds of the present invention on Rac activation by DOCK1 or DOCK2 was assessed in an in vitro GEF assay by using polypeptide fragments corresponding to the DHR-2 domain of DOCK1 or DOCK2 from mice and humans. The in vitro GEF assay was performed using a labeled GTP (Bodipy-FL-GTP, Invitrogen), which has a property of increasing the fluorescence intensity when bound to Rac.
The polypeptide fragments corresponding to the DHR-2 domain of DOCK1 or DOCK2 were prepared by expression in E. coli Arctic express (DE3) cells as N-terminal. Histidine-SUMO tag-fused recombinant proteins, followed by purification by affinity column chromatography on nickel-NTA columns.
Rac was prepared by expression in E. coli BL21 (DE3) cells as an N-terminal GST tag-fused recombinant protein, followed by purification by affinity column chromatography on glutathione-Sepharose columns.
Each of the polypeptide fragments corresponding to the DHR-2 domain of DOCK1 or DOCK2, and a predetermined concentration of each test compound (the compounds of the present invention: 33 types of compounds; and comparative compound: TBOPP) dissolved in DMSO were incubated in a reaction solution A (pH 7.0), which contained 20 mM of MES-NaOH, 150 mM of NaCl, 10 mM of MgCl2, and 20 μM of GDP for 20 minutes at room temperature while being shielded from light to thus prepare GEF pretreated products. The final concentration of DMSO was adjusted to 1 mass % in all of the test samples. For a control test, a GEF pretreated product (control) was prepared by incubation in the same manner using DMSO with no test compounds, instead of the DMSO used above in which each test compound was dissolved.
Separately, Rac was added to the reaction solution A (pH 7.0) to a concentration of 15 μM, and was allowed to stand on for 30 min to form a GDP-Rac complex. Bodipy-FL-GTP was added to a concentration of 3.6 μM to 100 μL of the reaction solution A that contained the thus-prepared GDP-Rac complex, and equilibrated at 30° C. for 2 minutes. After equilibration, 50 μL of the GEF pretreated product prepared as described above was added and reacted at 30° C.
Changes in fluorescence intensity of Bodipy-FL-GTP in the reaction solutions were monitored using an EnSpire spectrofluorometer (Perkin Elmer) (excitation wavelength: 488 nm, fluorescence wavelength: 514 nm). The measured values were corrected so that the fluorescence intensity at the beginning of the reaction (0 sec) was 0. Then, an approximate curve (hyperbola) was obtained by plotting the calculated correction values on the y-axis and the time (t) on the x-axis using GraphPad Prism5 (GraphPad software), and the slope at t=0 to 10 seconds was defined as the initial velocity of the guanine nucleotide exchange reaction. The IC50 value was calculated taking the initial reaction velocity of the control, to which only a solvent (DMSO) was added, as 100%.
Based on the obtained results, columns A and B of FIG. 1, FIG. 2, FIG. 3-1, and FIG. 3-2 show the results evaluating the inhibitory effect on Rac activation by DOCK1 (DHR-2 domain) (IC50 value), and DOCK1-selective inhibitory effect (DOCK1/DOCK2 selectivity) of each test compound. The inhibitory effect on Rac activation by DOCK1 (DHR-2 domain) (IC50 value) was determined from the reaction inhibition curve plotted using values of Rac activation by the DOCK1 DHR-2 domain in the presence of various concentrations of the test compounds, taking the values of the control as 100%. […]
For the molecule `O=c1ccc(S(=O)(=O)N2CCCC2)cn1CC(O)c1ccc(-c2cccc(C(F)(F)F)c2)cc1O` (stereo not drawn) [AK-16, 1-(2-hydroxy-2-(3-hydroxy-3′-(trifluoromethyl)-[1,1′-biphenyl]-4-yl)ethyl)-5-(pyrrolidin-1-yl-sulfonyl)pyridin-2(1H)-one], the “DOCK1-inhibiting activity compared with TBOPP” value was “slightly lower DOCK1-inhibiting activity” and the “selective inhibitory activity against DOCK1 compared to TBOPP” value is given as “higher selective inhibitory activity against DOCK1”. Consider `O=S(=O)(c1cc(CO)n(CC(O)c2ccc(-c3cccc(C(F)(F)F)c3)cc2)c1)N1CCCC1` (stereo not drawn) [HS-14, 2-(2-(hydroxymethyl)-4-(pyrrolidin-1-yl-sulfonyl)-1H-pyrrol-1-yl)-1-(3′-(trifluoromethyl)-[1,1′-biphenyl]-4-yl)ethan-1-ol], for which the “DOCK1-inhibiting activity compared with TBOPP” value is “slightly lower DOCK1-inhibiting activity” and the “selective inhibitory activity against DOCK1 compared to TBOPP” value was “higher selective inhibitory activity against DOCK1”.

The same assay, now with this note: in words, GEF assay DOCK1 vs DOCK2 DHR-2 domain.
Regarding `O=C(Cn1cc(S(=O)(=O)N2CCCC2)ccc1=O)c1ccc(-c2cccc(C(F)(F)F)c2)cc1O` [AK-15, 1-(2-(3-hydroxy-3′-(trifluoromethyl)-[1,1′-biphenyl]-4-yl)-2-oxoethyl)-5-(pyrrolidin-1-yl-sulfonyl)pyridin-2(1H)-one], the “selective inhibitory activity against DOCK1 versus DOCK2” value is “higher selective inhibitory activity against DOCK1 than against DOCK2”. On the same count and under the same terms, to `CC1(C)Oc2cc(-c3cccc(C(F)(F)F)c3)ccc2C(Cn2cc(S(=O)(=O)N3CCCC3)ccc2=O)O1` (stereo not drawn) [AK-17, 1-((2,2-dimethyl-7-(3-(trifluoromethyl)phenyl)-4H-benzo[d][1,3]dioxin-4-yl)methyl)-5-(pyrrolidin-1-yl-sulfonyl)pyridin-2(1H)-one] belongs “higher selective inhibitory activity against DOCK1 than against DOCK2”; to `CCCCCCOc1cc(-c2cccc(C(F)(F)F)c2)ccc1C(=O)C(CCCCCC)n1cc(S(=O)(=O)N2CCCC2)ccc1=O` (stereo not drawn) [AK-23, 1-(1-(3-(hexyloxy)-3′-(trifluoromethyl)-[1,1′-biphenyl]-4-yl)-1-oxooctan-2-yl)-5-(pyrrolidin-1-yl-sulfonyl)pyridin-2(1H)-one], “higher selective inhibitory activity against DOCK1 than against DOCK2”; to `O=C(Cn1cc(S(=O)(=O)N2CCCC2)ccc1=O)c1ccc(-c2cccc(C(F)(F)F)c2)cc1OCCc1ccccc1` [AK-24, 1-(2-oxo-2-(3-phenethoxy-3′-(trifluoromethyl)-[1,1′-biphenyl]-4-yl)ethyl)-5-(pyrrolidin-1-yl-sulfonyl)pyridin-2(1H)-one], “higher selective inhibitory activity against DOCK1 than against DOCK2”. The same measure, in the same setting: to `O=S(=O)(c1cc(CO)n(CC(O)c2ccc(-c3cccc(C(F)(F)F)c3)cc2)c1)N1CCCC1` (stereo not drawn) [HS-14, 2-(2-(hydroxymethyl)-4-(pyrrolidin-1-yl-sulfonyl)-1H-pyrrol-1-yl)-1-(3′-(trifluoromethyl)-[1,1′-biphenyl]-4-yl)ethan-1-ol] belongs “higher selective inhibitory activity against DOCK1 than against DOCK2”; to `CC(=O)Oc1cc(-c2ccc(-c3cccc(C(F)(F)F)c3)cc2)cn2cc(S(=O)(=O)N3CCCC3)cc12` [HS-20, 2-(pyrrolidin-1-yl-sulfonyl)-6-(3′-(trifluoromethyl)-[1,1′-biphenyl]-4-yl)-indolizin-8-yl acetate], “higher selective inhibitory activity against DOCK1 than against DOCK2”. Same read-out and setting: next, `O=C(Cn1cc(S(=O)(=O)N2CCC(c3ccc(-c4ccccc4)cc3)CC2)ccc1=O)c1ccc(-c2cccc(C(F)(F)F)c2)cc1` [KS-43, 5-((4-([1,1′-biphenyl]-4-yl)piperidin-1-yl)sulfonyl)-1-(2-oxo-2-(3′-(trifluoromethyl)-[1,1′-biphenyl]-4-yl)ethyl)pyridin-2(1H)-one]: “higher selective inhibitory activity against DOCK1 than against DOCK2”; `O=C(Cn1cc(S(=O)(=O)N2CCC(c3ccc(-c4ccc5c(c4)Cc4ccccc4-5)cc3)CC2)ccc1=O)c1ccc(-c2cccc(C(F)(F)F)c2)cc1` [KS-46, 5-((4-(4-(9H-fluoren-2-yl)phenyl)piperidin-1-yl)sulfonyl)-1-(2-oxo-2-(3′-(trifluoromethyl)-[1,1′-biphenyl]-4-yl)ethyl)pyridin-2(1H)-one]: “higher selective inhibitory activity against DOCK1 than against DOCK2”; `O=C(Cn1cc(S(=O)(=O)N2CCC(c3ccc(-c4c5ccccc5cc5ccccc45)cc3)CC2)ccc1=O)c1ccc(-c2cccc(C(F)(F)F)c2)cc1` [KS-47, 5-((4-(4-(anthracen-9-yl)phenyl)piperidin-1-yl)sulfonyl)-1-(2-oxo-2-(3′-(trifluoromethyl)-[1,1′-biphenyl]-4-yl)ethyl)pyridin-2(1H)-one]: “higher selective inhibitory activity against DOCK1 than against DOCK2”. Turning to `CN(C)C(=O)c1cc(S(=O)(=O)N2CCCC2)cn1CC(=O)c1ccc(-c2cccc(C(F)(F)F)c2)cc1` [RT-23, N,N-dimethyl-1-(2-oxo-2-(3′-(trifluoromethyl)-[1,1′-biphenyl]-4-yl)ethyl)-4-(pyrrolidin-1-yl-sulfonyl)-1H-pyrrole-2-carboxamide], the “selective inhibitory activity against DOCK1 versus DOCK2” value is reported as “higher selective inhibitory activity against DOCK1 than against DOCK2”.
